Drawing on patent publication US20260183275A1, “SUBSTITUTED QUINOLONE COMPOUNDS USEFUL AS INHIBITORS OF TLR9” (Bristol-Myers Squibb Company, priority 2022, published 2026), this text covers IC50 for one compound.

Molecules are shown by their SMILES.

Holding throughout (format): cell-based
One test deals with T1, human TLR9 (Homo sapiens, UniProt Q9NR96).
T1 construct: host or cells: HEK-Blue cells
T1 sequence (Q9NR96 26-1032): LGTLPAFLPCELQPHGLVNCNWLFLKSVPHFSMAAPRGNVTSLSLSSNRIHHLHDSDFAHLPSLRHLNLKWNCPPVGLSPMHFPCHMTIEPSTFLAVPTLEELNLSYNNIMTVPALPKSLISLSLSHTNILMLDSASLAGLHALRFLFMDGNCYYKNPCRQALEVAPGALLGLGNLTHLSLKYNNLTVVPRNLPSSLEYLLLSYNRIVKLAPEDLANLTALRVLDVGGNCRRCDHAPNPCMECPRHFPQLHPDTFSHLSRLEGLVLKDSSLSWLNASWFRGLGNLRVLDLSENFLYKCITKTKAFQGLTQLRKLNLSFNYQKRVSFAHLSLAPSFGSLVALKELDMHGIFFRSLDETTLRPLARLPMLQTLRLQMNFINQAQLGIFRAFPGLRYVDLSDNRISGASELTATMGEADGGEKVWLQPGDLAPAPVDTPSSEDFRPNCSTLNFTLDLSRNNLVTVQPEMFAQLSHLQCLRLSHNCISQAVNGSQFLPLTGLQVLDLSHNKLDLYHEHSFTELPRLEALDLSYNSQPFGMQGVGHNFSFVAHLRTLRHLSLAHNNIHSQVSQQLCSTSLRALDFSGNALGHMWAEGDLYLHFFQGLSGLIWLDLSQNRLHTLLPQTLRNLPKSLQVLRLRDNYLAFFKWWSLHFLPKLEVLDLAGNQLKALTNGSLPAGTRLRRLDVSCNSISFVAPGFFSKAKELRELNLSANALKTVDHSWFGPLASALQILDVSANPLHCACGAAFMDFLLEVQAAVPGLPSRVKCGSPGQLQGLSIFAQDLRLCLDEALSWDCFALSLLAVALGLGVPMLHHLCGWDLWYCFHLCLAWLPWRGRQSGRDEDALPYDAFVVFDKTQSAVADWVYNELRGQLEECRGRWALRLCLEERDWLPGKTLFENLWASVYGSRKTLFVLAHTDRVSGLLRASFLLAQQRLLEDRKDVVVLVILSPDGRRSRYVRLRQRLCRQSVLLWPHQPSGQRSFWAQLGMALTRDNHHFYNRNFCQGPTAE
The experiment in a line: TLR9 inhibition reporter assay (HEK-Blue cells, SEAP reporter). The conditions noted are these: HEK-Blue cells overexpressing human TLR9; stimulated with ODN2006 5 nM; SEAP read after 22 hour; dose range 0.05 nM-50 μM. The procedure, abridged:
(§1)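 HEK-Blue cells with NF-κB/AP-1-driven SEAP pre-treated 30 min with compounds (0.05 nM-50 μM), then stimulated with gardiquimod 7.5 μM (TLR7), R848 15.9 μM (TLR8) or ODN2006 5 nM (TLR9). SEAP read after 22 h at 37° C; % inhibition relative to agonist+DMSO and reference-inhibitor wells.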
(Reporter assays use an easily measured gene product as a stand-in for the process of interest.)

The next test has as its target T2, human TLR8 (Homo sapiens, UniProt Q9NR97).
T2 construct: host or cells: HEK-Blue cells
T2 sequence (Q9NR97 27-1041): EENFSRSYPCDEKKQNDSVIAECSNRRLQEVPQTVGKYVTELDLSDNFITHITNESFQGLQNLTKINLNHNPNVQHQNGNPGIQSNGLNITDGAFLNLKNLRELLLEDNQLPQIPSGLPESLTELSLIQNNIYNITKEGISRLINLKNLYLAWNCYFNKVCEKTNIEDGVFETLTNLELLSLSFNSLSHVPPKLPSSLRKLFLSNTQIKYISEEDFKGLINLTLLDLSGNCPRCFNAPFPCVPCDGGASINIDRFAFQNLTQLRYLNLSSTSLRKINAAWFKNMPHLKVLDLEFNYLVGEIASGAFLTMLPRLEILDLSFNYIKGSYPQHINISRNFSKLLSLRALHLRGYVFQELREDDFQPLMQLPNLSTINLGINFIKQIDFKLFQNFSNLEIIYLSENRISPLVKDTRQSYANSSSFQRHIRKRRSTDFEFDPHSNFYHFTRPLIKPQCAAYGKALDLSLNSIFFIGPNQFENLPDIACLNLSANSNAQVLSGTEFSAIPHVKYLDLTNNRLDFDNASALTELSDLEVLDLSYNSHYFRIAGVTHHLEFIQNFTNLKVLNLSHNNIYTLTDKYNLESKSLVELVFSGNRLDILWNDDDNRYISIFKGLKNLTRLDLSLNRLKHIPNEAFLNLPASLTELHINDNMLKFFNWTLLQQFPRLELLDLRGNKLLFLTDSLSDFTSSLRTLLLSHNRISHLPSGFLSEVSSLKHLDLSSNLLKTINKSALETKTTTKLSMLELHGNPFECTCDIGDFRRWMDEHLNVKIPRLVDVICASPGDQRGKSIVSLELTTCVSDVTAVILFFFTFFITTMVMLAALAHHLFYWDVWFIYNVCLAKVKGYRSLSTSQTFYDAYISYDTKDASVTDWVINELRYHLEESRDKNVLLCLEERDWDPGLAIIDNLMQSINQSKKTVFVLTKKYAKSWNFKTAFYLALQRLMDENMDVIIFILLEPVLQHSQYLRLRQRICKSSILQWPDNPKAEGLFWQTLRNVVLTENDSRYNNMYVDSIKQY
The experiment in a line: TLR8 inhibition reporter assay (HEK-Blue cells, SEAP reporter). The conditions noted are these: HEK-Blue cells overexpressing human TLR8; stimulated with R848 15.9 μM; SEAP read after 22 hour; dose range 0.05 nM-50 μM. The procedure, abridged:
as §1

For another test, the target named is T3, human TLR7 (Homo sapiens, UniProt Q9NYK1).
T3 construct: host or cells: HEK-Blue cells
T3 sequence (Q9NYK1 27-1049): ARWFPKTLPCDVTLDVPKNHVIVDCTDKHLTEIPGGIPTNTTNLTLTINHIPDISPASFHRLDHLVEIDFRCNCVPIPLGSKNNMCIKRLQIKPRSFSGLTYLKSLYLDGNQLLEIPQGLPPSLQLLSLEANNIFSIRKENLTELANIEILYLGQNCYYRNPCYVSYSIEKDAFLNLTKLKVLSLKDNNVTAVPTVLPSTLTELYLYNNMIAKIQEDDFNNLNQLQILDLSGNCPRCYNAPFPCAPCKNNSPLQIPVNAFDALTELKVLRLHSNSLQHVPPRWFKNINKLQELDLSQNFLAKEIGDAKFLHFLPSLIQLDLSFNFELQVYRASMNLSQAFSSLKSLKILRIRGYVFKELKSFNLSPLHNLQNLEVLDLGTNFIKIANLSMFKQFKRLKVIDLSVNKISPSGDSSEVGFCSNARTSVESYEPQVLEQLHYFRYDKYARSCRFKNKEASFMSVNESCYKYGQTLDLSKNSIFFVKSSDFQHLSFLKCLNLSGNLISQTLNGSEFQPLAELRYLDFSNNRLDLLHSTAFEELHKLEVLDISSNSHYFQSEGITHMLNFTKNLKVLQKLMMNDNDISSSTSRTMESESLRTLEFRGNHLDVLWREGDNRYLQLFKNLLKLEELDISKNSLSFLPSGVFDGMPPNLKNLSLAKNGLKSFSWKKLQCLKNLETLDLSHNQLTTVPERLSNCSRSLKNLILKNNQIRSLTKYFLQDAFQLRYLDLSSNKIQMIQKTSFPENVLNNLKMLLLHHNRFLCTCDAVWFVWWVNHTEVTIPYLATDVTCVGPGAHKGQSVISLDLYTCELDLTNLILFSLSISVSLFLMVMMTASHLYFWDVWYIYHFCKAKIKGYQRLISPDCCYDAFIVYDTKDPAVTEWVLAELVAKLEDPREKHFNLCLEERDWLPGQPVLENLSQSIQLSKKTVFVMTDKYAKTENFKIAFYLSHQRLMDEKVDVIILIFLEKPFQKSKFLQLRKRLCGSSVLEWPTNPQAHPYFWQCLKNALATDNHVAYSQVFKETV
The test can be described thus: TLR7 inhibition reporter assay (HEK-Blue cells, SEAP reporter). Particulars: HEK-Blue cells overexpressing human TLR7; stimulated with gardiquimod 7.5 μM; SEAP read after 22 hour; dose range 0.05 nM-50 μM. An outline of the steps: as §1

Turning to `CCc1c(-c2ccc(S(C)(=O)=O)cc2)c(=O)n(C)c2ccc(-c3ccc(C4CCN(C5COC5)CC4)cc3)cc12` [Example 101, 4-ethyl-3-(4-methanesulfonylphenyl)-1-methyl-6-{4-[1-(oxetan-3-yl)piperidin-4-yl]phenyl}-1,2-dihydroquinolin-2-one], the IC50 (commonly the midpoint of a concentration-inhibition curve) against human TLR9 was 2370 nM; on human TLR8, 1340 nM; at human TLR7, at least 50000 nM.
